Experimental data as given in US20090264481A1, “Compounds, Compositions and Methods Comprising Oxadiazole Derivatives” (Institute for OneWorld Health, priority 2008, published 2009).

Molecular target: T1, CFTR channel (Homo sapiens, UniProt P13569)
T1 construct: results in the phosphorylation and opening of CFTR anion channels; host or cells: human colonic T84 cells
Assay: T84 assay (FLIPR membrane potential, forskolin/IBMX-stimulated CFTR channel activity)
Assay type: cell-based
Conditions: Human colonic T84 cells; 10 μM forskolin + 100 μM IBMX; average of at least 2 runs unless marked n = 1
Protocol: (§1) For example, Human colonic T84 cells can be acquired from the European Collection of Cell Cultures (ECACC) and grown in standard culture conditions as described by the supplier. On the day before assay 25,000 T84 cells per well are plated into standard black walled, clear bottom 384-well assay plates in standard growth medium consisting of DMEM:F12 with 10% FBS and incubated overnight. On the day of the assay the plates are washed using a standard assay buffer (HBSS with 10 mM Hepes) and incubated for 15 minutes in serum free cell culture medium before the addition of a commercially available membrane potential sensitive fluorescent dye (FLIPR Red membrane potential dye, Molecular Devices Corporation). T84 cells are incubated with the FLIPR Red membrane potential dye for 45 minutes in the presence and absence of test compound before being transferred to a commercially available fluorescence imaging plate reader (FLIPR384, Molecular Devices Corporation). Fluorescence levels are monitored continuously every second for 150 seconds; after an initial 10 second baseline, CFTR channel activity is stimulated through the addition of 10 μM forskolin in the presence of 100 μM of the phosphodiesterase inhibitor iso-butyl-methylxanthine (IBMX). Addition of the forskolin leads to the activation of intracellular adenylyl cylase 1, elevating cAMP levels and results in the phosphorylation and opening of CFTR anion channels. CFTR channel opening causes chloride ion efflux and subsequent depolarization of the cells, which is measured by an increase in fluorescence. CFTR inhibitor compounds prevent cell depolarization and the associated increase in fluorescence.
as §1, with “Human colonic” for “For example, Human colonic”, “T84 cells are acquired from” for “T84 cells can be acquired from”, “(ECACC) and are grown in” for “(ECACC) and grown in”

T1 sequence (P13569 whole entry): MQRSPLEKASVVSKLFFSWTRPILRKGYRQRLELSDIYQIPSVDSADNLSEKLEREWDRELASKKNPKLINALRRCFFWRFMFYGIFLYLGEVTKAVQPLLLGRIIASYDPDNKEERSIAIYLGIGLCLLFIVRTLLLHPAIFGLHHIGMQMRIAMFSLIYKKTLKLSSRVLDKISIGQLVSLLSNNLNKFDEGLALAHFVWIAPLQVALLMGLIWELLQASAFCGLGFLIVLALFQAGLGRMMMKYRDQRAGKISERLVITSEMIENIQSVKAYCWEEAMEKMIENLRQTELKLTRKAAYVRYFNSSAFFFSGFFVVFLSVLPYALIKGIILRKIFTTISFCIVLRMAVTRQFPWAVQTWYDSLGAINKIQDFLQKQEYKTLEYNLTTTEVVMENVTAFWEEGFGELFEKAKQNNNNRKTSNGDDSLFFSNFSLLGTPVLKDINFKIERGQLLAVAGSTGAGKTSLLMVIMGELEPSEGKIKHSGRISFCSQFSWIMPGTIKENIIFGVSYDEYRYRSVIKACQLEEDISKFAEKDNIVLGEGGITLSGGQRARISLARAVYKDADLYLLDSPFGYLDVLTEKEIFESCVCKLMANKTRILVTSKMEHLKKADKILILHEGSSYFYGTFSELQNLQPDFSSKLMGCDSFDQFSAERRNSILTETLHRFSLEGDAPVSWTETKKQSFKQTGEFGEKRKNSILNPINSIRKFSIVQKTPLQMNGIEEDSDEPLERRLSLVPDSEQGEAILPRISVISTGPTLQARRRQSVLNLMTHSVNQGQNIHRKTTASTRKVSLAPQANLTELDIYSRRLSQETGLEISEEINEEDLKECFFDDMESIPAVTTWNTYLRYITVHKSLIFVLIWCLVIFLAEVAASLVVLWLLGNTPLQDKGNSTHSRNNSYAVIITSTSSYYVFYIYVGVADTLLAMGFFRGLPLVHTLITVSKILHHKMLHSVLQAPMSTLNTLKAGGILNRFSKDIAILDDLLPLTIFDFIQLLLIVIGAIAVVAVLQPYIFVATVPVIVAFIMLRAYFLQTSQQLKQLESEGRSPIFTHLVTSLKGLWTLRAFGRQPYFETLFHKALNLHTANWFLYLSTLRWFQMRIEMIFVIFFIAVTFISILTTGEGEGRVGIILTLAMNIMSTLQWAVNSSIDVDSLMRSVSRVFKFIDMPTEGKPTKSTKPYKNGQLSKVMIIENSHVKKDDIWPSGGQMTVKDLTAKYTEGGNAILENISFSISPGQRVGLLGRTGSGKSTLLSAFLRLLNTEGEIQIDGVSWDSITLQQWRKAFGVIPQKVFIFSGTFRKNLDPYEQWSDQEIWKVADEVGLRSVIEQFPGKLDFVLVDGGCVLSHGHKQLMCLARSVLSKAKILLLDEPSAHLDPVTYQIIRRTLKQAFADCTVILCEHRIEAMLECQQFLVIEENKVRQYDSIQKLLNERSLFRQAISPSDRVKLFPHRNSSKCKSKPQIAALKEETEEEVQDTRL

Oc1c(Br)cc(-c2noc(C(O)(c3cccc(Cl)c3)c3cccc(Cl)c3)n2)cc1Br [Compound 8, 4-(5-(bis(3-chlorophenyl)(hydroxy)methyl)-1,2,4-oxadiazol-3-yl)-2,6-dibromophenol]
IC50: 11.4 µM

Oc1c(Br)cc(-c2noc(C(O)(c3cccc(F)c3)c3cccc(F)c3)n2)cc1Br [Compound 2, 4-(5-(bis(3-fluorophenyl)(hydroxy)methyl)-1,2,4-oxadiazol-3-yl)-2,6-dibromophenol]
IC50: 5.04 µM

COc1cccc(C(O)(c2cccc(OC)c2)c2nc(-c3cc(Br)c(O)c(Br)c3)no2)c1 [Compound 3, 2,6-dibromo-4-(5-(hydroxybis(3-methoxyphenyl)methyl)-1,2,4-oxadiazol-3-yl)phenol]
IC50: 5.47 µM

Oc1c(Br)cc(-c2noc(C(O)(Cc3ccccc3)Cc3ccccc3)n2)cc1Br [Compound 1, 2,6-dibromo-4-(5-(2-hydroxy-1,3-diphenylpropan-2-yl)-1,2,4-oxadiazol-3-yl)phenol]
IC50: 3.89 µM

Oc1c(Br)cc(-c2noc(C(O)(c3ccccc3)c3ccccc3)n2)cc1Br [Compound 5, 2,6-dibromo-4-(5-(hydroxydiphenylmethyl)-1,2,4-oxadiazol-3-yl)phenol]
IC50: 5.85 µM

CC#CC(O)(C#CC)c1nc(-c2cc(Br)c(O)c(Br)c2)no1 [Compound 12, 2,6-dibromo-4-(5-(4-hydroxyhepta-2,5-diyn-4-yl)-1,2,4-oxadiazol-3-yl)phenol]
IC50: 16.2 µM

Oc1c(Br)cc(-c2noc(C(O)(c3ccc(Cl)cc3)c3ccc(Cl)cc3)n2)cc1Br [Compound 4, 4-(5-(bis(4-chlorophenyl)(hydroxy)methyl)-1,2,4-oxadiazol-3-yl)-2,6-dibromophenol]
IC50: 5.63 µM

Oc1c(Cl)cc(-c2noc(C(O)(c3ccccc3)c3ccccc3)n2)cc1Cl [Compound 10, 2,6-dichloro-4-(5-(hydroxydiphenylmethyl)-1,2,4-oxadiazol-3-yl)phenol]
IC50: 6.94 µM

Oc1c(Br)cc(-c2noc(C(O)(c3ccc4ccccc4c3)c3ccc4ccccc4c3)n2)cc1Br [Compound 7, 2,6-dibromo-4-(5-(hydroxydinaphthalen-2-ylmethyl)-1,2,4-oxadiazol-3-yl)phenol]
IC50: 18.7 µM

COc1cccc(C(O)(c2cccc(OC)c2)c2nc(-c3cc(Cl)c(O)c(Cl)c3)no2)c1 [Compound 9, 2,6-dichloro-4-(5-(hydroxybis(3-methoxyphenyl)methyl)-1,2,4-oxadiazol-3-yl)phenol]
IC50: 9.65 µM

Oc1c(Cl)cc(-c2noc(C(O)(c3ccc(Cl)cc3)c3ccc(Cl)cc3)n2)cc1Cl [Compound 11, 4-(5-(bis(4-chlorophenyl)(hydroxy)methyl)-1,2,4-oxadiazol-3-yl)-2,6-dichlorophenol]
IC50: 11.1 µM

CC(C)(C)c1ccc(C(O)(c2ccc(C(C)(C)C)cc2)c2nc(-c3cc(Br)c(O)c(Br)c3)no2)cc1 [Compound 6, 4-(5-(bis(4-tert-butylphenyl)(hydroxy)methyl)-1,2,4-oxadiazol-3-yl)-2,6-dibromophenol]
IC50: 18.8 µM
